Experimental data taken from publication PMC6430387, “Vertebrate odorant binding proteins as antimicrobial humoral components of innate immunity for pathogenic microorganisms” (PLoS ONE, 2019).
pIC50, pKd: −log10 of the molar value. Blank lines part the entries; values can stand above or below the molecule they belong to.

Assays:
Format in all cases: binding
bovine OBP (6-His-bOBP) [1] = molecular target: T1, bovine OBP (6-His-bOBP) (Bos taurus, UniProt P07435); experiment: direct fluorescence titration
T1 construct: domain-swapped homodimer
T1 sequence (P07435 1-159): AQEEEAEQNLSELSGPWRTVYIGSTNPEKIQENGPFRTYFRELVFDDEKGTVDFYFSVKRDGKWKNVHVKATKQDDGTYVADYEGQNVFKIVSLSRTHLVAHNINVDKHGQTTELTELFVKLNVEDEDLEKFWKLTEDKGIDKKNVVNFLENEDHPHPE

porcine OBP (6-His-pOBP) [2] = molecular target: T2, porcine OBP (6-His-pOBP) (Sus scrofa, UniProt P81245); experiment: direct fluorescence titration
T2 construct: monomer
T2 sequence (P81245 1-157): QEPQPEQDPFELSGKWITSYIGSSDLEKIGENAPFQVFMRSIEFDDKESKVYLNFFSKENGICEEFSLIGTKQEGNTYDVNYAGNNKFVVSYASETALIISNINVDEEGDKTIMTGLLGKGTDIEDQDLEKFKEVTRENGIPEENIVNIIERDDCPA

bovine OBP (6-His-bOBP) [3] = molecular target: T1, bovine OBP (6-His-bOBP); experiment: retention on OBP-Ni-NTA agarose filter; chromatography-MS; conditions: 10-40 μM ligand loaded; submillimolar immobilised OBP; uncoupled resin as control
bovine OBP (6-His-bOBP) [4] = molecular target: T1, bovine OBP (6-His-bOBP); experiment: competitive displacement of 1-aminoanthracene, fluorescence; conditions: read-out: Kdapp
porcine OBP (6-His-pOBP) [5] = molecular target: T2, porcine OBP (6-His-pOBP); experiment: as above; conditions: read-out: Kdapp
porcine OBP (6-His-pOBP) [6] = molecular target: T2, porcine OBP (6-His-pOBP); experiment: retention on OBP-Ni-NTA agarose filter, chromatography-MS; conditions: 0.34 μM ligand loaded; submillimolar immobilised OBP
porcine OBP (6-His-pOBP) [7] = molecular target: T2, porcine OBP (6-His-pOBP); experiment: retention on OBP-Ni-NTA agarose filter; eluate quantified; conditions: 5 and 10 μM ligand loaded; submillimolar immobilised OBP; uncoupled resin as control

SMILES: Nc1cccc2cc3ccccc3cc12 [1-aminoanthracene]
pKd (bovine OBP (6-His-bOBP) [1]): 6.14
pKd (porcine OBP (6-His-pOBP) [2]): 6.11

SMILES: Cn1c2cccc(=O)c-2nc2ccccc21 [pyocyanin]
% retention (porcine OBP (6-His-pOBP) [7]): 66±13% and 85±15%

Second part, the molecule after the results:

% retention (bovine OBP (6-His-bOBP) [3]): 63.2±5.8%-80.6±4.2%
SMILES: CCCC(=O)N[C@H]1CCOC1=O [C4AHL, N-butyryl-L-homoserine-lactone]

pIC50 (bovine OBP (6-His-bOBP) [4]): 5.43
pIC50 (porcine OBP (6-His-pOBP) [5]): 6.11
SMILES: CC(C)=CCC/C(C)=C/CC/C(C)=C/CO [farnesol]

% bound (porcine OBP (6-His-pOBP) [6]): 89.2±2.4%
SMILES: CCCCCCCCCC(=O)CC(=O)N[C@H]1CCOC1=O [oxo-C12AHL, N-(3-oxododecanoil)-L-homoserine-lactone]
